From US4234579A, “Penicillanic acid 1,1-dioxides as β-lactamase inhibitors” (priority 1979, dated 1980)
In brackets after ≈: the same amount, converted by molar mass. Where two headings read alike, the source gives them in different places.

Key:
[1] = test system: Haemophilus influenzae; test: Mode MIC of antibiotic and PA 1,1-Dioxide alone and in combination; format: cell-based; conditions: for MIC: Haemophilus influenzae, 18 h, alone; for Mode MIC's of Cefazolin and PA 1,1-Dioxide in Combination: Cefazolin + PA 1,1-Dioxide in combination
Excerpt: (§1) As indicated hereinbefore, the compounds of formula I, wherein R^1 is hydrogen or an ester-forming residue readily hydrolyzable in vivo, are antibacterial agents of medium potency. […] The procedure which is followed is the one recommended by the International Collaborative Study on Antibiotic Sensitivity Testing (Ericcson and Sherris, Acta. Pathologica et Microbiologia Scandinav, Supp. 217, Section B: 64-68 [1971]), and employs brain heart infusion (BHI) agar and the inocula replicating device. Overnight growth tubes are diluted 100 fold for use as the standard inoculum (20,000-10,000 cells in approximately 0.002 ml. are placed on the agar surface; 20 ml. of BHI agar/dish). Twelve 2 fold dilutions of the test compound are employed, with initial concentration of the test drug being 200 mcg./ml. Single colonies are disregarded when reading plates after 18 hrs. at 37° C. The susceptibility (MIC) of the test organism is accepted as the lowest concentration of compound capable of producing complete inhibition of growth as judged by the naked eye.
(§2) The manner in which the said compounds of the formula I increase the effectiveness of a β-lactam antibiotic can be appreciated by reference to experiments in which the MIC of a given antibiotic alone, and a compound of the formula I wherein R^1 is hydrogen, alone, are measured. These MIC's are then compared with the MIC values obtained with a combination of the given antibiotic and the compound of the formula I wherein R^1 is hydrogen. […] The MIC values of combinations are measured using the method described by Barry and Sabath in "Manual of Clinical Microbiology", edited by Lenette, Spaulding and Truant, 2nd Edition, 1974, American Society for Microbiology.
(§3) From Table II, it can be seen that against 19 ampicillin-resistant strains of Staphylococcus aureus, the mode MIC of ampicillin, and of penicillanic acid 1,1-dioxide, is 200 mcg./ml. […] The other entries in Table II show enhancement of the antibacterial effectiveness of ampicillin against 26 ampicillin resistant strains of Haemophilus influenzae, 18 ampicillin resistant strains of Klebsiella pneumoniae, and 15 strains of the anerobe Bacteroides fragilis. Tables III, IV and V show enhancement of the antibacterial potency of benzylpenicillin (penicillin G) carbenicillin (α-carboxybenzylpenicillin) and cefazolin, respectively, against strains of S. aureus, H. influenzae, K. pneumoniae and Bacteroides fragilis.

[2] = test system: Bacteroides fragilis; test: as above; format: cell-based; conditions: for MIC: Bacteroides fragilis, 18 h, read-out: Mode MIC alone; for Mode MIC's of Cefazolin and PA 1,1-Dioxide in Combination: Cefazolin + PA 1,1-Dioxide in combination
Excerpt: as §1, §2, §3

[3] = test system: Klebsiella pneumoniae; test: as above; format: cell-based; conditions: for MIC: Klebsiella pneumoniae, 18 h, read-out: Mode MIC alone; for Mode MIC's of Cefazolin and PA 1,1-Dioxide in Combination: Cefazolin + PA 1,1-Dioxide in combination
Excerpt: as §1, §2, §3

[4] = test system: Staphylococcus aureus; test: as above; format: cell-based; conditions: for MIC: Staphylococcus aureus, 18 h, read-out: Mode MIC alone; for Mode MIC's of Cefazolin and PA 1,1-Dioxide in Combination: Cefazolin + PA 1,1-Dioxide in combination
Excerpt: as §1, §2, §3

[5] = test system: microbial β-lactamases; test: Inhibition of microbial β-lactamases; format: biochemical; conditions: result in words
[6] = test system: Streptococcus faecalis; test: In vitro antibacterial activity (MIC), Table I; format: cell-based; conditions: Enterococcus faecalis; BHI agar, 18 hrs. at 37° C.
Excerpt: as §1

[7] = test system: Pasteurella multocida; test: In vitro antibacterial activity (MIC), Table I; format: cell-based; conditions: BHI agar, 18 hrs. at 37° C.
Excerpt: as §1

[8] = test system: Pseudomonas aeruginosa; test: In vitro antibacterial activity (MIC), Table I; format: cell-based; conditions: BHI agar, 18 hrs. at 37° C.
Excerpt: as §1

[9] = test system: Neisseria gonorrhoeae; test: In vitro antibacterial activity (MIC), Table I; format: cell-based; conditions: BHI agar, 18 hrs. at 37° C.
Excerpt: as §1

[10] = test system: Staphylococcus epidermis; test: In vitro antibacterial activity (MIC), Table I; format: cell-based; conditions: BHI agar, 18 hrs. at 37° C.
Excerpt: as §1

[11] = test system: Escherichia coli; test: In vitro antibacterial activity (MIC), Table I; format: cell-based; conditions: BHI agar, 18 hrs. at 37° C.
Excerpt: as §1

[12] = test system: Hemophilus influenzae; test: In vitro antibacterial activity (MIC), Table I; format: cell-based; conditions: Haemophilus influenzae; BHI agar, 18 hrs. at 37° C.
Excerpt: as §1

[13] = test system: Enterobacter aerogenes; test: In vitro antibacterial activity (MIC), Table I; format: cell-based; conditions: Klebsiella aerogenes; BHI agar, 18 hrs. at 37° C.
Excerpt: as §1

[14] = test system: Salmonella typhimurium; test: In vitro antibacterial activity (MIC), Table I; format: cell-based; conditions: Salmonella enterica, BHI agar, 18 hrs. at 37° C.
Excerpt: as §1

[15] = test system: Serratia marcescens; test: In vitro antibacterial activity (MIC), Table I; format: cell-based; conditions: BHI agar, 18 hrs. at 37° C.
Excerpt: as §1

[16] = test system: Enterobacter clocae; test: In vitro antibacterial activity (MIC), Table I; format: cell-based; conditions: BHI agar, 18 hrs. at 37° C.
Excerpt: as §1

[17] = test system: Proteus mirabilis; test: In vitro antibacterial activity (MIC), Table I; format: cell-based; conditions: BHI agar, 18 hrs. at 37° C.
Excerpt: as §1

[18] = test system: Klebsiella pneumoniae; test: In vitro antibacterial activity (MIC), Table I; format: cell-based; conditions: BHI agar, 18 hrs. at 37° C.
Excerpt: as §1

[19] = test system: Staphylococcus aureus; test: In vitro antibacterial activity (MIC), Table I; format: cell-based; conditions: BHI agar, 18 hrs. at 37° C.
Excerpt: as §1

[20] = test system: Providencia; test: In vitro antibacterial activity (MIC), Table I; format: cell-based; conditions: BHI agar, 18 hrs. at 37° C.
Excerpt: as §1

[21] = test system: Citrobacter freundii; test: In vitro antibacterial activity (MIC), Table I; format: cell-based; conditions: BHI agar, 18 hrs. at 37° C.
Excerpt: as §1

[22] = test system: Streptococcus pyogenes; test: In vitro antibacterial activity (MIC), Table I; format: cell-based; conditions: BHI agar, 18 hrs. at 37° C.
Excerpt: as §1

[23] = test system: Pseudomonas putida; test: In vitro antibacterial activity (MIC), Table I; format: cell-based; conditions: BHI agar, 18 hrs. at 37° C.
Excerpt: as §1

[24] = test system: Proteus morgani; test: In vitro antibacterial activity (MIC), Table I; format: cell-based; conditions: BHI agar, 18 hrs. at 37° C.
Excerpt: as §1

[25] = test system: many microorganisms, particularly those which produce a β-lactamase; test: Enhancement of antibacterial effectiveness of β-lactam antibiotics (combination MIC); format: cell-based; conditions: result in words; combination with β-lactam antibiotic
Procedure: as §2

## Cc1nnc(SCC2=C(C(=O)O)N3C(=O)[C@@H](NC(=O)Cn4cnnn4)[C@H]3SC2)s1 [Cefazolin, reference compound]
[1]; Table V, 25 strains, read-out: Mode MIC alone
  MIC: 25 mg/L
[1]; Table V, 25 strains
  Mode MIC's of Cefazolin and PA 1,1-Dioxide in Combination: 3.12 mg/L
[2]; Table V, 15 strains, alone
  MIC: 200 mg/L
[2]; Table V, 15 strains
  Mode MIC's of Cefazolin and PA 1,1-Dioxide in Combination: 6.25 mg/L
[3]; Table V, 3 strains, alone
  MIC: 100 mg/L
[3]; Table V, 3 strains
  Mode MIC's of Cefazolin and PA 1,1-Dioxide in Combination: 6.25 mg/L
[4]; Table V, 20 strains, alone
  MIC: 0.78 mg/L
[4]; Table V, 20 strains
  Mode MIC's of Cefazolin and PA 1,1-Dioxide in Combination: 0.2 mg/L

## CC1(C)[C@H](C(=O)O)N2C(=O)C[C@H]2S1(=O)=O [Penicillanic Acid 1,1-Dioxide]
[1]; read-out: Mode MIC alone, Table II, 26 ampicillin resistant strains
  MIC: > 200 mg/L
[1]; read-out: Mode MIC alone, Table III, 25 strains
  MIC: 100 mg/L
[1]; read-out: Mode MIC alone, Table IV, 25 strains
  MIC: 100 mg/L
[1]; read-out: Mode MIC alone, Table V, 25 strains
  MIC: 200 mg/L
[1]; Table II, 26 ampicillin resistant strains, ampicillin + PA 1,1-Dioxide in combination
  Mode MIC's of ampicillin and PA 1,1-Dioxide in combination: 3.12 mg/L
[1]; Table III, 25 strains, penicillin G + PA 1,1-Dioxide in combination
  Mode MIC's of penicillin G and PA 1,1-Dioxide in combination: 1.56 mg/L
[1]; Table IV, 25 strains, carbenicillin + PA 1,1-Dioxide in combination
  Mode MIC's of carbenicillin and PA 1,1-Dioxide in combination: 0.78 mg/L
[1]; Table V, 25 strains
  Mode MIC's of Cefazolin and PA 1,1-Dioxide in Combination: 0.2 mg/L
[2]
  MIC: 50 mg/L
[2]; Table II, 15 strains, ampicillin + PA 1,1-Dioxide in combination
  Mode MIC's of ampicillin and PA 1,1-Dioxide in combination: 0.78 mg/L
[2]; Table III, 15 strains, alone
  Mode MIC alone: 50 mg/L
[2]; Table III, 15 strains, penicillin G + PA 1,1-Dioxide in combination
  Mode MIC's of penicillin G and PA 1,1-Dioxide in combination: 0.39 mg/L
[2]; Table IV, 15 strains, alone
  Mode MIC alone: 50 mg/L
[2]; Table IV, 15 strains, carbenicillin + PA 1,1-Dioxide in combination
  Mode MIC's of carbenicillin and PA 1,1-Dioxide in combination: 0.78 mg/L
[2]; Table V, 15 strains
  Mode MIC's of Cefazolin and PA 1,1-Dioxide in Combination: 6.25 mg/L
[2]; Table V, 15 strains, alone
  Mode MIC alone: 50 mg/L
[3]
  MIC: 50 mg/L
[3]; Table II, 18 ampicillin resistant strains, ampicillin + PA 1,1-Dioxide in combination
  Mode MIC's of ampicillin and PA 1,1-Dioxide in combination: 6.25 mg/L
[3]; Table III, 24 strains, alone
  Mode MIC alone: 50 mg/L
[3]; Table III, 24 strains, penicillin G + PA 1,1-Dioxide in combination
  Mode MIC's of penicillin G and PA 1,1-Dioxide in combination: 12.5 mg/L
[3]; Table IV, 16 strains, alone
  Mode MIC alone: 50 mg/L
[3]; Table IV, 16 strains, carbenicillin + PA 1,1-Dioxide in combination
  Mode MIC's of carbenicillin and PA 1,1-Dioxide in combination: 6.25 mg/L
[3]; Table V, 3 strains
  Mode MIC's of Cefazolin and PA 1,1-Dioxide in Combination: 25 mg/L
[3]; Table V, 3 strains, alone
  Mode MIC alone: 50 mg/L
[4]
  MIC: 200 mg/L
[4]; Table II, 19 ampicillin-resistant strains, ampicillin + PA 1,1-Dioxide in combination
  Mode MIC's of ampicillin and PA 1,1-Dioxide in combination: 3.12 mg/L
[4]; Table III, 20 strains, alone
  Mode MIC alone: 200 mg/L
[4]; Table III, 20 strains, penicillin G + PA 1,1-Dioxide in combination
  Mode MIC's of penicillin G and PA 1,1-Dioxide in combination: 6.25 mg/L
[4]; Table IV, 20 strains, alone
  Mode MIC alone: 200 mg/L
[4]; Table IV, 20 strains, carbenicillin + PA 1,1-Dioxide in combination
  Mode MIC's of carbenicillin and PA 1,1-Dioxide in combination: 6.25 mg/L
[4]; Table V, 20 strains
  Mode MIC's of Cefazolin and PA 1,1-Dioxide in Combination: 25 mg/L
[4]; Table V, 20 strains, alone
  Mode MIC alone: 200 mg/L
[5]
  inhibition of microbial β-lactamases: potent inhibitors of microbial β-lactamases
[6]
  MIC: > 200 mg/L
[7]
  MIC: 50 mg/L (≈ 214 µM)
[8]
  MIC: 200 mg/L (≈ 857 µM)
[9]
  MIC: 0.312 mg/L (≈ 1.34 µM)
[10]
  MIC: 200 mg/L (≈ 857 µM)
[11]
  MIC: 50 mg/L (≈ 214 µM)
[12]
  MIC: > 50 mg/L
[13]
  MIC: 25 mg/L (≈ 107 µM)
[14]
  MIC: 50 mg/L (≈ 214 µM)
[15]
  MIC: 100 mg/L (≈ 429 µM)
[16]
  MIC: 100 mg/L (≈ 429 µM)
[17]
  MIC: 100 mg/L (≈ 429 µM)
[18]
  MIC: 50 mg/L (≈ 214 µM)
[19]
  MIC: 100 mg/L (≈ 429 µM)
[20]
  MIC: 100 mg/L (≈ 429 µM)
[21]
  MIC: 50 mg/L (≈ 214 µM)
[22]
  MIC: 100 mg/L (≈ 429 µM)
[23]
  MIC: > 200 mg/L
[24]
  MIC: 100 mg/L (≈ 429 µM)
[25]
  enhancement of antibacterial effectiveness of β-lactam antibiotics: enhances the effectiveness of ampicillin
